From patent US11253497B2, “Use of derivatives of polyunsaturated fatty acids as medicaments” (Lipopharma Therapeutics, S.L., priority 2009, dated 2022)

Key:
[1] = Serum cholesterol, triglycerides and glucose in SHR rats (colorimetric); assay type: in vivo, rat; settings: 200 mg/kg daily p.o., 28 days, untreated rats 100%
Procedure: In a separate experimental series, SHR rats were treated with various compounds of the present invention (200 mg/kg daily, 28 days, p.o.) and the levels of cholesterol, triglycerides and glucose in serum were measured by colorimetric methods. It was observed that these compounds induce significant (and in many cases marked) reductions in the levels of these metabolites (Table 16).
Values are expressed as percent, and in untreated (control) rats values were always considered as 100%.

lung cancer cells A549 = test: Growth of lung cancer cells A549 (IC50); assay type: cell-based, human; settings: 72 hours of incubation
Procedure: (§1) For the experiments shown in FIG. 1, cultured human Non Small Cell Lung Cancer cells (A549) in RPMI 1640 were used, supplemented with 10% foetal bovine serum and antibiotics, at 37° C. and 5% CO2. […] After treatment, cell count was performed and the study of the mechanisms involved in the antitumor activity of compounds was evaluated by flow cytometry. […] These values correspond to averages of three independent experiments.
(§2) These charts show the antitumor efficacy of the compounds of this invention against the growth of breast cancer cells, brain (glioma), and lung cancer. […] The other experimental conditions are identical to those described in the preceding paragraph.

[2] = test system: brain cancer cell (glioma) U118; test: Brain cancer (glioma) U118 cell growth; assay type: cell-based; settings: 72 hours of incubation
Procedure: For the experiments shown in FIG. 1, cultured human Non Small Cell Lung Cancer cells (A549) in RPMI 1640 were used, supplemented with 10% foetal bovine serum and antibiotics, at 37° C. and 5% CO2. Cells were maintained in culture for 48 hours in the presence or absence of D-PUFAs and PUFAs indicated in Table 2 at a concentration of 250 µM. After treatment, cell count was performed and the study of the mechanisms involved in the antitumor activity of compounds was evaluated by flow cytometry. […] These values correspond to averages of three independent experiments.
as §2

[3] = test system: Spontaneously Hypertensive Rats (SHR); test: Blood pressure of SHR rats (cuff-tail method); assay type: in vivo, rat; settings: 200 mg/kg day p.o., 30 days, before treatment 214 mmHg
Procedure: (§3) In a separate experimental series, it was studied the effect of D-PUFA molecules of the present invention on blood pressure of SHR rats. In these animals both, blood pressure and levels of apolipoprotein AI (apoA-I) were measured. For these experiments Spontaneously Hypertensive Rats (SHR) were treated for 30 days with vehicle (water control) or compounds of the invention (200 mg/kg day, p.o.). At the end of this period, the animals' blood pressure and serum levels of apoA-I were measured. […] For these experiments, non-invasive methods for determining blood pressure (cuff-tail method) and gene expression for apoA-I (RT-PCR) described in the literature (Terés et al., 2008) were used. The usefulness of the molecules of the present invention for the treatment of cardiovascular diseases is reinforced by its capacity for reducing the levels of serum cholesterol and triglycerides (see below).
(§4) The average values of SHR before treatment were 214 mmHg and 100% respectively.

[4] = test system: breast cancer cells MDA-MB-231; test: Growth of breast cancer cells MDA-MB-231; assay type: cell-based; settings: 72 hours of incubation
Procedure: as §1, §2

[5] = test system: apolipoprotein AI (apoA-I); test: Levels of apoA-I in SHR rats (RT-PCR); assay type: in vivo, rat; settings: 200 mg/kg day p.o., 30 days, before treatment 100%
Procedure: as §3, §4

[6] = Lamellar-to-hexagonal (HII) transition temperature in DEPE model membranes by Differential Scanning Calorimetry; assay type: physicochemical; settings: DEPE membranes, DEPE:D-PUFA 10:1 (mol:mol)
Procedure: The transition temperature was determined by Differential Scanning Calorimetry. The proportion DEPE:D-PUFA was 10:1 (mol:mol) in all cases. Lamellar-to-hexagonal transition is an important parameter that reflects relevant signalling properties of cell membranes. […] When this occurs, certain peripheral membrane proteins (such as G proteins, protein kinase C or Ras protein) can more easily bind to the membrane, while others have a poor interaction (e.g., the Gα-protein), so changes in the HII transition temperature are important in regulating cellular functions related to health and human therapy (Escriba et al., 1995, Vogler et al., 2004; Escriba, 2006).
Control values correspond to model membranes in the absence of fatty acids. The reduction in HII transition temperature obtained by using the D-PUFA of the invention indicates an increased induction of membrane discontinuities, generating anchoring sites in the membrane for peripheral proteins and leads to better regulation of cell signalling and, therefore, greater effectiveness in the control of certain diseases.

## CCCCCC=CCC=CCCCCCCC(C)C(=O)OCC (stereo not drawn) [182N1]
[1]
  Cholesterol in serum (top number): 92%
  Glucose in serum (bottom number): 90%
  Triglycerides in serum (central number): 93%
Lung cancer cells A549
  IC50: 329 µM
[2]
  IC50: 247 µM
[3]
  Blood pressure: 187 mm Hg
[4]
  IC50: 297 µM
[5]
  Levels of apoA-I: 159%

## CCCCCC=CCC=CCCCCCCC(CO)C(=O)O (stereo not drawn) [182P1]
Lung cancer cells A549
  IC50: 328 µM
[3]
  Blood pressure: 202 mm Hg
[4]
  IC50: 419 µM
[5]
  Levels of apoA-I: 184%

## CCCCCC=CCC=CCC=CCCCC(OC)C(=O)O (stereo not drawn) [183G2]
[6]
  Temperature of lamellar-to-hexagonal transition: 50.1 °C
Lung cancer cells A549
  IC50: 295 µM
[2]
  IC50: 394 µM
[4]
  IC50: 159 µM

## CCC=CCC=CCC=CCCCCCCC(C)C(=O)OCC (stereo not drawn) [183N1]
[1]
  Cholesterol in serum (top number): 72%
  Glucose in serum (bottom number): 84%
  Triglycerides in serum (central number): 69%
Lung cancer cells A549
  IC50: 379 µM
[2]
  IC50: 324 µM
[3]
  Blood pressure: 208 mm Hg
[4]
  IC50: 278 µM
[5]
  Levels of apoA-I: 189%

## CCCCCC=CCC=CCC=CCCCC(C)C(=O)OCC (stereo not drawn) [183N2]
[1]
  Cholesterol in serum (top number): 89%
  Glucose in serum (bottom number): 92%
  Triglycerides in serum (central number): 85%
Lung cancer cells A549
  IC50: 255 µM
[2]
  IC50: 385 µM
[3]
  Blood pressure: 194 mm Hg
[4]
  IC50: 186 µM
[5]
  Levels of apoA-I: 296%

## CCC=CCC=CCC=CCCCCCCC(Cl)C(=O)OCC (stereo not drawn) [183O1]
[6]
  Temperature of lamellar-to-hexagonal transition: 51.2 °C
Lung cancer cells A549
  IC50: 344 µM
[2]
  IC50: 370 µM
[4]
  IC50: 267 µM

## CCC=CCC=CCC=CCCCCCCC(CO)C(=O)O (stereo not drawn) [183P1]
Lung cancer cells A549
  IC50: 317 µM
[2]
  IC50: 285 µM
[3]
  Blood pressure: 201 mm Hg
[4]
  IC50: 349 µM
[5]
  Levels of apoA-I: 178%

## CCCCCC=CCC=CCC=CCCCC(CO)C(=O)O (stereo not drawn) [183P2]
Lung cancer cells A549
  IC50: 272 µM
[2]
  IC50: 389 µM
[3]
  Blood pressure: 187 mm Hg
[4]
  IC50: 214 µM
[5]
  Levels of apoA-I: 347%

## CCC=CCC=CCC=CCCCCCCC(OP(=O)(OCC)OCC)C(=O)OCC (stereo not drawn) [183R1]
[6]
  Temperature of lamellar-to-hexagonal transition: 51.8 °C
Lung cancer cells A549
  IC50: 258 µM
[2]
  IC50: 307 µM
[4]
  IC50: 305 µM

## CCCCCC=CCC=CCC=CCCCC(OP(=O)(OCC)OCC)C(=O)OCC (stereo not drawn) [183R2]
[6]
  Temperature of lamellar-to-hexagonal transition: 49.9 °C
Lung cancer cells A549
  IC50: 274 µM
[2]
  IC50: 454 µM
[4]
  IC50: 172 µM

## CCCCCC=CCC=CCC=CCC=CCCC(O)C(=O)OC (stereo not drawn) [204D1]
[6]
  Temperature of lamellar-to-hexagonal transition: 48.7 °C
Lung cancer cells A549
  IC50: 372 µM
[2]
  IC50: 311 µM
[4]
  IC50: 281 µM

## CCCCCC=CCC=CCC=CCC=CCCC(O)C(=O)OCC (stereo not drawn) [204E1]
[6]
  Temperature of lamellar-to-hexagonal transition: 48.4 °C
Lung cancer cells A549
  IC50: 475 µM
[2]
  IC50: 224 µM
[4]
  IC50: 299 µM

## CCCCCC=CCC=CCC=CCC=CCCC(OC)C(=O)O (stereo not drawn) [204G1]
[6]
  Temperature of lamellar-to-hexagonal transition: 49.6 °C
Lung cancer cells A549
  IC50: 427 µM
[2]
  IC50: 342 µM
[4]
  IC50: 372 µM

## CCCCCC=CCC=CCC=CCC=CCCC(C)C(=O)OCC (stereo not drawn) [204N1]
[1]
  Cholesterol in serum (top number): 82%
  Glucose in serum (bottom number): 82%
  Triglycerides in serum (central number): 81%
Lung cancer cells A549
  IC50: 420 µM
[2]
  IC50: 315 µM
[3]
  Blood pressure: 201 mm Hg
[4]
  IC50: 274 µM
[5]
  Levels of apoA-I: 174%

## CCCCCC=CCC=CCC=CCC=CCCC(CO)C(=O)O (stereo not drawn) [204P1]
Lung cancer cells A549
  IC50: 387 µM
[2]
  IC50: 291 µM
[3]
  Blood pressure: 203 mm Hg
[4]
  IC50: 370 µM
[5]
  Levels of apoA-I: 153%

## CCCCCC=CCC=CCC=CCC=CCCC(OP(=O)(OCC)OCC)C(=O)OCC (stereo not drawn) [204R1]
[6]
  Temperature of lamellar-to-hexagonal transition: 50 °C
Lung cancer cells A549
  IC50: 364 µM
[2]
  IC50: 501 µM
[4]
  IC50: 285 µM

## CCC=CCC=CCC=CCC=CCC=CCCC(O)C(=O)OC (stereo not drawn) [205D1]
[6]
  Temperature of lamellar-to-hexagonal transition: 47.5 °C
Lung cancer cells A549
  IC50: 364 µM
[2]
  IC50: 467 µM
[4]
  IC50: 2 µM

## CCC=CCC=CCC=CCC=CCC=CCCC(O)C(=O)OCC (stereo not drawn) [205E1]
[6]
  Temperature of lamellar-to-hexagonal transition: 46.7 °C
Lung cancer cells A549
  IC50: 413 µM
[2]
  IC50: 513 µM
[4]
  IC50: 284 µM

## CCC=CCC=CCC=CCC=CCC=CCCC(OC)C(=O)O (stereo not drawn) [205G1]
[6]
  Temperature of lamellar-to-hexagonal transition: 47.3 °C
Lung cancer cells A549
  IC50: 407 µM
[2]
  IC50: 426 µM
[4]
  IC50: 219 µM

## CCC=CCC=CCC=CCC=CCC=CCCC(C)C(=O)OCC (stereo not drawn) [205N1]
[1]
  Cholesterol in serum (top number): 80%
  Glucose in serum (bottom number): 86%
  Triglycerides in serum (central number): 73%
Lung cancer cells A549
  IC50: 384 µM
[2]
  IC50: 513 µM
[3]
  Blood pressure: 189 mm Hg
[4]
  IC50: 289 µM
[5]
  Levels of apoA-I: 293%

## CCC=CCC=CCC=CCC=CCC=CCCC(CO)C(=O)O (stereo not drawn) [205P1]
Lung cancer cells A549
  IC50: 339 µM
[2]
  IC50: 432 µM
[3]
  Blood pressure: 194 mm Hg
[4]
  IC50: 301 µM
[5]
  Levels of apoA-I: 337%

## CCC=CCC=CCC=CCC=CCC=CCCC(OP(=O)(OCC)OCC)C(=O)OCC (stereo not drawn) [205R1]
[6]
  Temperature of lamellar-to-hexagonal transition: 48.4 °C
Lung cancer cells A549
  IC50: 417 µM
[2]
  IC50: 468 µM
[4]
  IC50: 245 µM

## CCC=CCC=CCC=CCC=CCC=CCC=CCC(O)C(=O)OC (stereo not drawn) [226D1]
[6]
  Temperature of lamellar-to-hexagonal transition: 43.9 °C
Lung cancer cells A549
  IC50: 221 µM
[2]
  IC50: 241 µM
[4]
  IC50: 224 µM

## CCC=CCC=CCC=CCC=CCC=CCC=CCC(O)C(=O)OCC (stereo not drawn) [226E1]
[6]
  Temperature of lamellar-to-hexagonal transition: 42.9 °C
Lung cancer cells A549
  IC50: 209 µM
[2]
  IC50: 265 µM
[4]
  IC50: 207 µM

## CCC=CCC=CCC=CCC=CCC=CCC=CCC(OC)C(=O)O (stereo not drawn) [226G1]
[6]
  Temperature of lamellar-to-hexagonal transition: 44.1 °C
Lung cancer cells A549
  IC50: 273 µM
[2]
  IC50: 278 µM
[4]
  IC50: 213 µM

## CCC=CCC=CCC=CCC=CCC=CCC=CCC(CO)C(=O)O (stereo not drawn) [226P1]
Lung cancer cells A549
  IC50: 291 µM
[2]
  IC50: 290 µM
[3]
  Blood pressure: 193 mm Hg
[4]
  IC50: 250 µM
[5]
  Levels of apoA-I: 382%
